From PubChem BioAssay (NCI)
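In this assay, cells in 96-well plates receive the compound at five concentrations for 48 hours. Endpoints are linearly interpolated between the surrounding concentrations. Definition used: TGI = concentration required for complete inhibition of growth.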

Assays:
Test in all cases: growth of human tumour cells (NCI), 48 h
BT-549 breast = system: BT-549 breast
HL-60(TB) leukemia = system: HL-60(TB) leukemia
K-562 leukemia = system: K-562 leukemia
M14 melanoma = system: M14 melanoma
MOLT-4 leukemia = system: MOLT-4 leukemia
NCI-H226 lung = system: NCI-H226 lung
NCI/ADR-RES ovarian = system: NCI/ADR-RES ovarian
RXF 393 renal = system: RXF 393 renal
SNB-19 CNS = system: SNB-19 CNS
UO-31 renal = system: UO-31 renal

SMILES | TGI (BT-549 breast) | TGI (HL-60(TB) leukemia) | TGI (K-562 leukemia) | TGI (M14 melanoma) | TGI (MOLT-4 leukemia) | TGI (NCI-H226 lung) | TGI (NCI/ADR-RES ovarian) | TGI (RXF 393 renal) | TGI (SNB-19 CNS) | TGI (UO-31 renal)
CCOC(=O)C12OC(CCC1=O)C(C(=O)OC)=C2C(=O)OC (stereo not given) | > 10 µM | > 10 µM | > 10 µM | > 10 µM | > 10 µM | > 10 µM | > 10 µM | > 10 µM | > 10 µM | > 10 µM
O=c1c(/C=C/c2c(O)ccc3ccccc23)nnc2sc(-c3cccc(Br)c3)nn12 | 56.7 µM | 26.6 µM | 77.7 µM | 66.4 µM | 40.3 µM | – | 88.4 µM | – | > 100 µM | 69.6 µM
Fc1cc(-c2cc(-c3ccccc3)no2)c(Cl)cc1Cl | 39.8 µM | > 37.7 µM | > 56.4 µM | > 54.7 µM | > 47.8 µM | > 23.3 µM | > 100 µM | 16.6 µM | > 62.5 µM | > 59.3 µM
COC(=O)c1ccccc1/C=C1\Cc2ccc(C)c(C)c2C1=O | > 100 µM | > 100 µM | > 100 µM | > 100 µM | > 100 µM | > 100 µM | > 100 µM | > 100 µM | > 100 µM | > 100 µM
NNC(=O)c1n[nH]nc1C(=O)NN | 29.3 µM | > 100 µM | > 100 µM | > 100 µM | > 100 µM | – | > 100 µM | > 100 µM | > 100 µM | 41.8 µM
CC(C)C(=O)OCC1OC(n2c(Br)nc3c(=O)[nH]c(N)nc32)C(OC(=O)C(C)C)C1OC(=O)C(C)C (stereo not given) | > 100 µM | – | – | > 100 µM | 48.2 µM | > 100 µM | > 100 µM | – | > 100 µM | > 100 µM
CCOC1OC(=O)c2cc3ccc4c(c3c(-c3ccc5c(c3)OCO5)c21)OCO4 (stereo not given) | 97.2 µM | > 100 µM | > 100 µM | 79.3 µM | > 100 µM | > 74 µM | > 74.6 µM | 97.9 µM | > 100 µM | > 100 µM
COc1ccc(S(=O)(=O)c2nnc(S(=O)(=O)Cc3ccccc3)s2)cc1 | 49.8 µM | – | > 100 µM | 33.1 µM | – | – | > 100 µM | 31.2 µM | 36.8 µM | 43.4 µM
C[C@H](CCC(=O)O)[C@H]1CC[C@H]2[C@@H]3CC[C@@H]4C[C@H](O)CC[C@]4(C)[C@H]3C[C@H](O)[C@]12C | > 100 µM | 67.1 µM | > 100 µM | > 100 µM | 62.3 µM | > 100 µM | > 100 µM | > 100 µM | > 100 µM | > 100 µM
O=C(O)C(NCc1ccccc1)C(NCc1ccccc1)C(=O)O (stereo not given) | > 100 µM | > 100 µM | > 100 µM | > 100 µM | > 100 µM | > 100 µM | > 100 µM | – | > 100 µM | > 100 µM
CC1CCC(=O)C(C(=O)CC2CC(=O)N(C)C(=O)C2)C1 (stereo not given) | > 100 µM | > 100 µM | > 100 µM | > 100 µM | > 100 µM | > 100 µM | > 100 µM | > 100 µM | > 100 µM | > 100 µM
